# From patent US20240091169A1, “POL[…] FOR TREATING INFLAMMATORY DISEASES” (UNIVERSITY OF SOUTH CAROLINA, priority 2022, published 2024)
# Key:
# [1] = system: BMDMs treated with C26 CM; assay: Survival of BMDMs cultured with C26 tumor conditioned media; assay type: cell-based, C57BL/6 mice; details: 48 hr
# Procedure: (§1) Bone marrow-derived macrophages (BMDMs) were isolated from healthy 10-14-week-old C57BL/6 male mice. Briefly, mice were euthanized by isoflurane overdose. Femurs were cleared of muscle and debris. The epiphyses of the femurs were cut and placed knee-down and spun down in a 1.5 mL tube. Bone marrow was collected and resuspended in complete DMEM (cDMEM; 10% FBS, 1% penicillin/streptomycin) and passed through two 100 μm strainers. Cells were plated on an untreated 10 cm dish in cDMEM and allowed to incubate at 37° C. for 4 hr. Adherent/mature monocytes and dendritic cells were discarded, while floating/immature monocytes were collected. Cells were subjected to RBC lysis and resuspended in bone marrow maintenance media (BMMM; 20% L929-conditioned media in cDMEM). Cells were then plated on surface-treated 6-well plates at a 250 k cells/well seeding density. On day 3, fresh BMMM was added. On day 5, media was aspirated and fresh BMMM was added. […] Cells were stained and analyzed for macrophages via flow cytometry as described above with the addition of analyzing macrophage phenotypes. From the CD11b^+CD68^+ macrophage population, macrophage phenotypes were determined based on CD206 and CD11c expression. […] All cells were measured using a FACS Aria II (BD) and analyzed using FlowJo (BD Biosciences). […]
# [2] = system: BMDMs incubated with IL-4 (M2 media); assay: M2 macrophage polarization of BMDMs with IL-4 (flow cytometry); assay type: cell-based, C57BL/6 mice; details: 1 μM PA, M2 media (IL-4), 24 hr, vs VEH
# Procedure: Bone marrow-derived macrophages (BMDMs) were isolated from healthy 10-14-week-old C57BL/6 male mice. Briefly, mice were euthanized by isoflurane overdose. Femurs were cleared of muscle and debris. The epiphyses of the femurs were cut and placed knee-down and spun down in a 1.5 mL tube. Bone marrow was collected and resuspended in complete DMEM (cDMEM; 10% FBS, 1% penicillin/streptomycin) and passed through two 100 μm strainers. Cells were plated on an untreated 10 cm dish in cDMEM and allowed to incubate at 37° C. for 4 hr. Adherent/mature monocytes and dendritic cells were discarded, while floating/immature monocytes were collected. Cells were subjected to RBC lysis and resuspended in bone marrow maintenance media (BMMM; 20% L929-conditioned media in cDMEM). Cells were then plated on surface-treated 6-well plates at a 250 k cells/well seeding density. On day 3, fresh BMMM was added. On day 5, media was aspirated and fresh BMMM was added. For M2 macrophage polarization experiments, 6-day mature macrophages were given either cDMEM+VEH, M2 media (cDMEM with 10 ng/mL IL-4)+VEH, or M2 media+1 μM PA. Cells were incubated for 24 hr. For C26 colon tumor conditioned media (C26 CM) experiments, 6-day mature macrophages were given either serum-free media (SFM)+VEH, 33% C26-conditioned media (C26 CM)+VEH, or 33% C26 CM+1, 2.5, or 5 μM PA. Cells were incubated for 48 hr. After incubation with these different treatments, cells were washed twice with PBS and incubated with 5 mM EDTA PBS at 4° C. for 20 min. Cells were then gently scraped and transferred into flow tubes, spun at 1600 rpm at 4° C. for 5 min, and washed in PBS before antibody staining. Cells were stained and analyzed for macrophages via flow cytometry as described above with the addition of analyzing macrophage phenotypes. From the CD11b^+CD68^+ macrophage population, macrophage phenotypes were determined based on CD206 and CD11c expression. […] All cells were measured using a FACS Aria II (BD) and analyzed using FlowJo (BD Biosciences). […]
# [3] = system: DSS-induced chronic colitis; assay: DSS mouse model, Experiment 1: chronic colitis; assay type: in vivo, C57BL/6 female mice
# Procedure: Experiment 1—Chronic Colitis: 14-week-old C57BL/6 female mice were given 3 cycles of DSS. Each cycle consisted of 7 days on DSS (cycle 1: 1%; cycle 2: 1.5%, cycle 3: 1%), immediately followed by 7 days of regular drinking water. Either vehicle or panaxynol was administered 3×/week beginning on the day prior to the first DSS cycle (day −1) until study completion (FIG. 9A). To ensure the induction of colitis and to quantify disease states, colitis symptoms were monitored 3×/week using a pre-established disease activity index (DAI), which quantifies bodyweight loss, stool consistency, and rectal bleeding to produce an overall symptom score; a higher score correlates with worsened disease. Mice were euthanized on day 42—one day after the last dose of panaxynol was given. Data presented in FIG. 9A-9F was obtained from 2 cohorts of Experiment 1—Chronic Colitis.
# Panaxynol (PA; C17H24O) was purchased from Biopurify Pytochemicals Ltd in sealed 5 mg/mL vials in pure 95% ethanol and stored at −20° C. PA was prepared fresh on the day of treatment by diluting in H2O to 1 mg/mL for administration (p.o.) at a dosage of 2.5 mg/kg. This dosage was chosen following a pilot dose-response study to determine PA's efficacy. PA or VEH was administered 3×/week via oral gavage using flexible plastic tubing gavage needles (Instech, Cat #FTP-20) for a total of 12 weeks.
# All mice underwent the same symptom monitoring and scoring. Body weights and symptom scores were determined […] to quantify disease state, with a higher score indicative of a worsened disease state. Symptom scores were calculated by scoring percent body weight loss, stool consistency, and rectal bleeding as previously described. Briefly, fresh colonic evacuates were smeared onto “Hemoccult” tape (Beckman Coulter) to assess severity of diarrhea and were tested with developer (Beckman Coulter) to assess rectal bleeding. Stool consistency was scored as follows: solid cylinder (0), soft cylinder and easily spreadable (2), and noncylindrical or runny (4). Bleeding was scored as follows: no positive detection of blood (0), detection of blood but not grossly visible (2), and gross visibility of blood (4). Body weight was calculated as percent bodyweight loss: 0%-5% (0), 6%-10% (1), 11%-15% (2), 15%-20% (3), 20%-25% (4), and >25% (5). Scores of all three categories were summed to obtain an overall symptom score for each mouse.
# Prior to euthanasia, colonoscopies were performed (n=3/group) to visualize the colonic tissue and quantify the severity of disease (colitis and colorectal tumors) using an established protocol. Briefly, mice were anesthetized with isoflurane to perform a detailed endoscopic examination in which the endoscope was gently inserted into the rectum and through the anus. Air was applied to slowly set apart the intestinal walls for examination. As the scope advanced, pictures were taken frequently and the following were meticulously assessed and scored by the blinded primary investigator using the well-established scoring system to integrate evaluation of intestinal inflammation (i.e., focal lesions (edematous areas of mucosa, erosions/reddened areas, ulcers), perianal region findings (diarrhea, bloody anal discharge, or prolapse), transparency of the colonic wall (visualization of the intramural blood vessels), and presence of intestinal bleeding) and tumors. Scoring was performed as previously described with no modifications. Upon completion of colonoscopies, mice were placed on a warm pad set at 37° C. for 5 min.
# [4] = system: bone marrow derived macrophages (BMDMs); assay: CCK-8 cell viability of BMDMs; assay type: cell-based, C57BL/6 mice; details: Mus musculus, BMDM, 24 hr, read-out: IC50, cell survival of BMDMs
# Procedure: as §1
smiles,measurement,setting,value
"C=CC(O)C#CC#CC/C=C\CCCCCCC (stereo in doubt) [PA, 3(R)-(9Z)-heptadeca-1,9-dien-4,6-diyn-3-ol]",reduction of macrophage survival,[1]; 1 μM PA,31.5%
same,reduction of macrophage survival,[1]; 5 μM PA,45.3%
same,naïve M0 macrophages,[2]; p=0.06,increased
same,M2 macrophages,[2]; p=0.08,non-significantly reduced
same,transitional M1-M2 macrophages,[2]; p=0.12,non-significantly reduced
same,rectal bleeding,"[3]; DAI, vs DSS+Veh",decreased
same,stool consistency,"[3]; DAI, vs DSS+Veh",improved
same,reduction in ulcerations (endoscopic score),"[3]; day 42, vs DSS+Veh, p=0.001",65%
same,reduction in total lesions (endoscopic score),"[3]; day 42, vs DSS+Veh, p=0.005",70%
same,reduction in inflammation (endoscopic score),"[3]; day 42, vs DSS+Veh, p=0.016",54%
same,reduction in total endoscopic scores,"[3]; day 42, vs DSS+Veh, p=0.016",52%
same,reduction in erosions (endoscopic score),"[3]; day 42, vs DSS+Veh, p=0.017",74%
same,body weight,"[3]; end of study, not significant vs DSS+Veh 20.7±0.4, p=0.862",20.3 ± 0.7 g
same,DAI scores,"[3]; throughout treatment, vs DSS+Veh",significantly (p≤0.05) improved
same,IC50,[4],~7 µM
